# Test results from patent US5594032A, “Amelioration of human erectile dysfunction by treatment with iNOS, inducers of iNOS or iNOS cDNA” (priority 1994, dated 1997).
# B1: INF-θ: recombinant murine interferon-θ (in vitro); recombinant rat interferon-θ (IFN-γ) in vivo (protein, UniProt P01580 23-155, looked up)
# Interferon gamma: HGTVIESLESLNNYFNSSGIDVEEKSLFLDIWRNWQKDGDMKILQSQIISFYLRLFEVLKDNQAISNNISVIESHLITTFFSNSKAKKDAFMSIAKFEVNNPQVQRQAFNELIRVVHQLLPESSLRKRKRSRC
# modifications: rat IFN-gamma used in vivo
# What was measured:
# [1] = system: rat penis smooth muscle cells (RPSMC); test: Nitrite accumulation in medium of rat penis smooth muscle cell cultures (Greiss reagent); type: cell-based
# Method: Primary cultures of RPSMC were initiated from small pieces of penile tissue excised from 3 months old Sprague Dawley rats, utilizing Dulbecco's modified Eagle medium (DMEM) with 20% fetal calf serum, at 37° C. in the presence of 5% CO2. Cells grown from the explants were then transferred to medium with 10% serum, and at the 4th to 10th passage (1:3 splits) they were utilized for the experiments, unless otherwise indicated. Alternatively, cells from the 4-8th passage stored under liquid nitrogen were used to reinitiate the cultures, and used for incubations on the following 2-4 passages. These cultures are considered to consist mainly of smooth muscle cells from the penis based on morphological and cytoimmunochemical criteria.
# All experiments were conducted at 90-100% cell confluence on "Primaria" cultureware, usually 24-well plates, adding or not the inducers indicated in each experiment. When not specifically stated, the standard binary induction mix consisted of bacterial lipopolysaccharide (LPS) (10 ug/ml) and recombinant murine […] (INF-θ) (250 U/ml). Other substances to be tested were added as indicated to the serum-containing medium, and the incubation proceeded for the times indicated. The medium was always collected and stored for an indirect measurement of NO production based on the determination of its conversion into nitrites. The procedure was based on the application of the Greiss reagent, using 250 ul of the medium mixed with an equal volume of reagent. Each experimental condition was carried out in triplicate.
# [2] = system: Male Fischer 344 rats; test: Erectile response (maximal intracavernosal pressure) to electrical field stimulation of the cavernosal nerve; type: in vivo, rat; details: for inhibition of the erectile response: sub-optimal dose
# Method: Male Fischer 344 rats from three age groups designated "adult" (5-month old), "old" (20 month old), and "very old" (28-32 month old) rats, were anesthetized with an intraperitoneal injection of sodium […] (pentobarbital) at 50 mg/kg. The definition of these age groups in terms of relative aging corresponds to conventional designations for the Fisher 344 strain of rats (maximal life span approximately 34-36 months; optimum breeding activity 2.5-8 months). The adult and very old rats were retired breeders whenever possible. Animals were maintained under controlled lighting and were treated according to NIH regulations. The number of animals in each group for each individual experiment is indicated in the corresponding figure.
# A transversal suprapubic skin incision (5 mmm) was done to expose the penis angle and its proximal portion. The right corpora cavernosa was then cannulated with a 27-gauge needle attached to a vinyl tubing (Bolab/bb317-85 Arizona) which was connected with an ALZET^R osmotic pump (Alza Corporation, Palo Alto, Calif.). Each pump (100 or 200 ul reservoir volume, as indicated) contained a mix of E. coli lipopolysaccharide (LPS) at 1 ug/ml, recombinant rat […] (IFN-γ) at 2,500 U/ml, recombinant human tumor necrosis factor-(TNF-α) at 2,500 U/ml, and recombinant human interleukin-1β (IL-1β) at 50 ng/ml.
# The needle and the tubing were fixed to the penis peripheral tissues by Mersilene* 6-0 suture and the osmotic pump was placed subcutaneously on the rat abdomen. […] The incision was closed by layer using Dexon* Plus 4-0 suture and the success of the operation was checked all throughout the experiment by observation of a normal recovery and urinary activity. These criteria were completed by verifying the absence of peripheral hematomas or inflammation when the pump was removed. Each pump delivered the inducer mix by osmotic pressure through the catheter directly into the corpora cavernosa, either at 1 ul/hr during 3 days (pump 1003D) or at 0.5 ul/hr during 14 days (pump 2002).
# At the completion of each treatment rats were anesthetized as in Example 1 and the erectile response was measured by a modification of a published procedure. Briefly, the cavernosal nerve was surgically exposed and stimulated with a square pulse stimulator connected to a platinum bipolar electrode positioned on the nerve. Through a needle inserted into the cavernosa, the intracavernosal pressure was recorded with a pressure transducer connected to a recorder that was calibrated with a manometer in order to express the response in mm of mercury. The animals were reinjected every 45 min with 35 mg/kg of ketamine for the whole duration of the experiment (about 2-3 hours).
# Each rat was submitted to the following sequential treatments done in duplicate: a) electrical field stimulation (EFS) at a frequency of 15 Hz for pulses of 30 sec, separated for 5 min intervals, for the voltage response curve, at […], 2.5, 5 and 10 volts, in this order; b) EFS at 10 volts with the nitric oxide synthase (NOS) inhibitor N -nitro-L-arginine methy ester (L-NAME) at 2 mg/kg, at a single dose per animal, recording 30 min. after injection. In some animals, the systemic blood pressure was measured at the beginning of the experiment, by intrafemoral cannulation and recording as above. Means and standard deviations were determined for the intracavernosal pressure values, and the statistical significance was obtained by the paired Student's t test.
# [3] = system: penile NOS; test: NOS activity in penile cytosol, (3-H) L-arginine to (3-H) citrulline conversion; type: biochemical, rat; details: cytosol of inducer-treated rats
# Method: Six adult rats were implanted with 100 ul pumps for 3 days, and then the pumps were replaced by similar ones with fresh solution as indicated in Example 2. Three animals had the pumps containing the inducer mix and three had saline as a control. At the end of the experiment the animals were anesthetized as indicated above and the penis (including the bulb), liver, and in some animals the cerebellum were surgically removed. The penile head and skin were excised and the organs were stored under liquid nitrogen.
# NOS activity was determined from tissue homogenates from two treated and two control rats, not subjected to EFS in order to avoid the interference with residual L-NAME from the in vivo experiments and EFS-induced changes in NOS activity. […] After eliminating the residual (3-H)L-arginine through the resin, (3-H) citrulline was counted in the trichloroacetic acid ether-extracted supernatant. All values were corrected by the radioactivity eluted in time zero incubations.
# [4] = system: cNOS, iNOS; details: cited from earlier work
# [5] = supplemented with 1 or 10 ug/ml LPS, 48 hr incubation
molecule,measurement,setting,value
"COC(=O)[C@@H](N)CCCNC(=N)N[N+](=O)[O-] [L-NAME, N-nitro-L-arginine methyl ester]",inhibition at 2000 µM,"[1]; Rattus norvegicus, 2 mM, RPSMC treated with standard induction mix, read-out: inhibition of nitrite release",≤ 85%
same,fraction of maximal intracavernosal pressure remaining after L-NAME,"[2]; adult rats treated with inducers, L-NAME 2 mg/kg, EFS 10 volts",39%
same,fraction of maximal intracavernosal pressure remaining after L-NAME,[2]; adult rats without inducer treatment (separate study),62%
same,fraction of maximal intracavernosal pressure remaining after L-NAME,"[2]; old rats treated with inducers, L-NAME 2 mg/kg, EFS 10 volts",18%
same,fraction of maximal intracavernosal pressure remaining after L-NAME,[2]; old rats without inducer treatment (separate study),30%
same,inhibition of the erectile response,[2]; non-respondent rats after 14 days inducer treatment,normal
same,inhibition of the erectile response,"[2]; respondent animals after 14 days inducer treatment, three age groups",over 95%
same,fraction of maximal intracavernosal pressure remaining after L-NAME,"[2]; very old rats treated with inducers, L-NAME 2 mg/kg, EFS 10 volts",28%
same,fraction of maximal intracavernosal pressure remaining after L-NAME,[2]; very old rats without inducer treatment (separate study),23%
same,inhibition of NOS activity in penile cytosol,[3]; 2 mM,60-70%
N=C(NCCC[C@H](N)C(=O)O)N[N+](=O)[O-] [L-nitroarginine],potency as inhibitor of cNOS relative to iNOS,[4],1000 fold
N=C(N)NN [aminoguanidine],effect on NOS activity in penile cytosol,[3]; 0.3 mM,not affected
same,isoform preference of NOS inhibition,[4]; specificity varies with the cell type,preferential inhibitor for iNOS
IL-1β: recombinant human interleukin-1 β,effectiveness compared with 500 U/ml INF-θ,"[1]; 5 ng/ml with 10 ug/ml LPS, 48 hr",slightly more effective
TNF-α,effect on nitrite production,"[1]; up to 500 u/ml, presence or absence of LPS, 48 hr",did not have any effect
B1,"nitrites in culture medium, maximum","[1]; 50 to 500 U/ml, absence of LPS, 48 hr incubation",≤ 45 µM
same,induction relative to the basal level,[1]; [5],~20 fold
same,nitrites in culture medium,[1]; [5],up to 120 uM
